In brackets after ≈: the same amount, converted by molar mass.

In one test the test system is Escherichia coli EC14. Put plainly: MIC, standard agar-dilution assay. Format: cell-based.
Test [1] concerns Streptococcus pyogenes C203. Briefly: MIC, standard agar-dilution assay. Format: cell-based.
Another test concerns Streptococcus pyogenes. As to conditions: Streptococcus pyogenes infection in mice; two doses, administered subcutaneously.
For test [2], the system named is Klebsiella pneumoniae X26. Put plainly: MIC, standard agar-dilution assay. Type of test: cell-based.
Test [3] relates to Streptococcus faecium ATCC 9790. Briefly: MIC, standard agar-dilution assay. Format: cell-based.
Test [4] concerns Staphylococcus aureus V41. Put plainly: MIC, standard agar-dilution assay. Format: cell-based.
Another test concerns Escherichia coli TEM. Briefly: MIC, standard agar-dilution assay. Format: cell-based.
Test [5] has as its system Haemophilus influenzae 76. Briefly: MIC, standard agar-dilution assay. Format: cell-based.
Test [6] deals with Haemophilus influenzae C.L. Briefly: MIC, standard agar-dilution assay. Format: cell-based.
In test [7] the test system is Staphylococcus aureus X400. Put plainly: MIC, standard agar-dilution assay. Format: cell-based.
Test [8] deals with Staphylococcus aureus NRRL B313. The settings on record: agar dilution. In general terms: In agar dilution the substance is mixed into plates at graded concentrations.
The subject of a further test is Staphylococcus aureus. As to conditions: Staphylococcus aureus infection in mice; two doses, administered subcutaneously.
Test [9] has as its system Streptococcus pneumoniae Park 1. Type of test: cell-based. As to conditions: agar dilution.
Test [10] concerns Klebsiella pneumoniae KAE. Put plainly: MIC, standard agar-dilution assay. Type of test: cell-based.
For test [11], the system named is Staphylococcus epidermidis 222. Briefly: MIC, standard agar-dilution assay. Format: cell-based.
For test [12], the system named is Streptococcus sp. group D 2041. Briefly: MIC, standard agar-dilution assay. Format: cell-based.
The subject of test [13] is Staphylococcus aureus S13E. Format: cell-based. The settings on record: agar dilution.
Test [14] relates to Klebsiella pneumoniae X68. Put plainly: MIC, standard agar-dilution assay. Type of test: cell-based.
Test [15] deals with Staphylococcus epidermidis EPI1. Type of test: cell-based. As to conditions: agar dilution.
A further test has as its system Escherichia coli N10. Briefly: MIC, standard agar-dilution assay. Type of test: cell-based.
The subject of a further test is Streptococcus pneumoniae. The settings on record: Streptococcus pneumoniae infection in mice; two doses, administered subcutaneously.

In the case of `CCCCCCCCOc1ccc(CNC2(C)CC(OC3C(Oc4c5cc6cc4Oc4ccc(cc4Cl)C(O)C4NC(=O)C(NC(=O)C6NC(=O)C(CC(N)=O)NC(=O)C(NC(=O)C(CC(C)C)NC)C(O)c6ccc(c(Cl)c6)O5)c5ccc(O)c(c5)-c5c(O)cc(O)cc5C(C(=O)O)NC4=O)OC(CO)C(O)C3O)OC(C)C2O)cc1` (stereo not drawn) [Example 94, N^van --( -p-octyloxybenzyl)vancomycin], the MIC against Escherichia coli EC14 was over 128 µg/mL; in test [1], 0.25 µg/mL (≈ 0.15 µM); in test [2] it was over 128 µg/mL; in [3], 0.25 µg/mL (≈ 0.15 µM); in test [4], 0.5 µg/mL (≈ 0.3 µM); in the test with Escherichia coli TEM, over 128 µg/mL. The MIC in test [5] is over 128 µg/mL; in test [6], over 128 µg/mL; in test [7], 0.5 µg/mL (≈ 0.3 µM); in test [8], 0.25 µg/mL (≈ 0.15 µM); in test [9] it was 0.25 µg/mL (≈ 0.15 µM); in test [10] it was over 128 µg/mL. Besides, the MIC in test [11] was 0.5 µg/mL (≈ 0.3 µM); in test [12], 0.25 µg/mL (≈ 0.15 µM); in test [13], 0.5 µg/mL (≈ 0.3 µM); in test [14] it was over 128 µg/mL; in [15], 1 µg/mL (≈ 0.6 µM); in the test with Escherichia coli N10, over 128 µg/mL. Further, the ED50 is on record as 0.66 mg/kg/2 with Streptococcus pyogenes, over 0.12 mg/kg/2 in the test with Staphylococcus aureus and 0.2 mg/kg/2 in the test on Streptococcus pneumoniae.

Turning to `CCCCCCCCc1ccc(CNC2(C)CC(OC3C(Oc4c5cc6cc4Oc4ccc(cc4Cl)C(O)C4NC(=O)C(NC(=O)C6NC(=O)C(CC(N)=O)NC(=O)C(NC(=O)C(CC(C)C)NC)C(O)c6ccc(c(Cl)c6)O5)c5ccc(O)c(c5)-c5c(O)cc(O)cc5C(C(=O)O)NC4=O)OC(CO)C(O)C3O)OC(C)C2O)cc1` (stereo not drawn) [Example 93, N^van --( -p-octylbenzyl)vancomycin], the MIC was over 128 µg/mL in the test on Escherichia coli EC14; 0.25 µg/mL (≈ 0.151 µM) in test [1]; over 128 µg/mL in test [2]; 0.25 µg/mL (≈ 0.151 µM) in test [3]; 1 µg/mL (≈ 0.605 µM) in test [4]; over 128 µg/mL against Escherichia coli TEM. Moreover, the MIC is over 128 µg/mL in test [5]; over 128 µg/mL in [6]; 1 µg/mL (≈ 0.605 µM) in [7]; 0.5 µg/mL (≈ 0.303 µM) in test [8]; 0.25 µg/mL (≈ 0.151 µM) in [9]; over 128 µg/mL in test [10]. Besides, the MIC in test [11] was 1 µg/mL (≈ 0.605 µM); in test [12], 0.5 µg/mL (≈ 0.303 µM); in test [13], 0.5 µg/mL (≈ 0.303 µM); in [14], over 128 µg/mL; in test [15], 2 µg/mL (≈ 1.21 µM); with Escherichia coli N10 it was over 128 µg/mL. Moreover, the figures for the ED50 in the test on Streptococcus pyogenes, in the test on Staphylococcus aureus and with Streptococcus pneumoniae were 0.62 mg/kg/2, 0.19 mg/kg/2 and 0.23 mg/kg/2, respectively.

Turning to `CCCCCCCCCNC1(C)CC(OC2C(Oc3c4cc5cc3Oc3ccc(cc3Cl)C(O)C3NC(=O)C(NC(=O)C5NC(=O)C(CC(N)=O)NC(=O)C(NC(=O)C(CC(C)C)NC)C(O)c5ccc(c(Cl)c5)O4)c4ccc(O)c(c4)-c4c(O)cc(O)cc4C(C(=O)O)NC3=O)OC(CO)C(O)C2O)OC(C)C1O` (stereo not drawn) [Compound 5, N^van --(n-nonyl)vancomycin], the MIC is over 128 µg/mL in the test on Escherichia coli EC14; 0.125 µg/mL (≈ 0.0793 µM) in test [1]; over 128 µg/mL in test [2]; 0.25 µg/mL (≈ 0.159 µM) in test [3]; 0.25 µg/mL (≈ 0.159 µM) in test [4]; over 128 µg/mL in the test with Escherichia coli TEM. For the same compound, the MIC in test [5] was 64 µg/mL (≈ 40.6 µM); in test [6], 64 µg/mL (≈ 40.6 µM); in test [7], 0.25 µg/mL (≈ 0.159 µM); in [8] it was 0.25 µg/mL (≈ 0.159 µM); in test [9] it was 0.25 µg/mL (≈ 0.159 µM); in test [10], over 128 µg/mL. Moreover, the MIC in test [11] is 0.25 µg/mL (≈ 0.159 µM); in test [12], 0.5 µg/mL (≈ 0.317 µM); in test [13], 0.25 µg/mL (≈ 0.159 µM); in [14], over 128 µg/mL; in [15], 0.5 µg/mL (≈ 0.317 µM); with Escherichia coli N10, over 128 µg/mL. Further, the ED50 was found to be 0.56 mg/kg/2 with Streptococcus pyogenes, 2.9 mg/kg/2 with Staphylococcus aureus and 0.81 mg/kg/2 in the test on Streptococcus pneumoniae.

For the compound `CNC(CC(C)C)C(=O)NC1C(=O)NC(CC(N)=O)C(=O)NC2C(=O)NC3C(=O)NC(C(=O)NC(C(=O)O)c4cc(O)cc(O)c4-c4cc3ccc4O)C(O)c3ccc(c(Cl)c3)Oc3cc2cc(c3OC2OC(CO)C(O)C(O)C2OC2CC(C)(NCc3ccc(O)cc3)C(O)C(C)O2)Oc2ccc(cc2Cl)C1O` (stereo not drawn) [Example 105, N^van --( -p-hydroxybenzyl)vancomycin], the MIC in the test with Escherichia coli EC14 is over 128 µg/mL; in test [1], 0.5 µg/mL (≈ 0.321 µM); in [2], over 128 µg/mL; in test [3] it was 0.5 µg/mL (≈ 0.321 µM); in [4] it was 0.5 µg/mL (≈ 0.321 µM); against Escherichia coli TEM, over 128 µg/mL. Further, the MIC is 64 µg/mL (≈ 41.1 µM) in [5]; 64 µg/mL (≈ 41.1 µM) in test [6]; 0.5 µg/mL (≈ 0.321 µM) in test [7]; 0.5 µg/mL (≈ 0.321 µM) in [8]; 0.06 µg/mL (≈ 0.0386 µM) in [9]; over 128 µg/mL in [10]. The MIC was 0.5 µg/mL (≈ 0.321 µM) in [11]; 2 µg/mL (≈ 1.29 µM) in [12]; 0.5 µg/mL (≈ 0.321 µM) in test [13]; over 128 µg/mL in test [14]; 1 µg/mL (≈ 0.643 µM) in [15]; over 128 µg/mL against Escherichia coli N10. Moreover, the ED50 came out at 1.18 mg/kg/2 in the test with Streptococcus pyogenes, 0.98 mg/kg/2 with Staphylococcus aureus and 1.25 mg/kg/2 in the test with Streptococcus pneumoniae.

As to `CCCCOc1ccc(CNC2(C)CC(OC3C(Oc4c5cc6cc4Oc4ccc(cc4Cl)C(O)C4NC(=O)C(NC(=O)C6NC(=O)C(CC(N)=O)NC(=O)C(NC(=O)C(CC(C)C)NC)C(O)c6ccc(c(Cl)c6)O5)c5ccc(O)c(c5)-c5c(O)cc(O)cc5C(C(=O)O)NC4=O)OC(CO)C(O)C3O)OC(C)C2O)cc1` (stereo not drawn) [Example 84, N^van --( -p-butoxybenzyl)vancomycin], the MIC in the test with Escherichia coli EC14 is over 128 µg/mL; in test [1], 0.06 µg/mL (≈ 0.0372 µM); in test [2] it was over 128 µg/mL; in test [3] it was 0.125 µg/mL (≈ 0.0776 µM); in test [4], 0.125 µg/mL (≈ 0.0776 µM); with Escherichia coli TEM, over 128 µg/mL. Besides, the MIC was 64 µg/mL (≈ 39.7 µM) in [5]; 32 µg/mL (≈ 19.9 µM) in test [6]; 0.125 µg/mL (≈ 0.0776 µM) in test [7]; 0.125 µg/mL (≈ 0.0776 µM) in test [8]; 0.03 µg/mL (≈ 0.0186 µM) in [9]; over 128 µg/mL in test [10]. In addition, the MIC in test [11] is 0.25 µg/mL (≈ 0.155 µM); in test [12], 0.25 µg/mL (≈ 0.155 µM); in test [13] it was 0.125 µg/mL (≈ 0.0776 µM); in [14] it was over 128 µg/mL; in [15], 0.25 µg/mL (≈ 0.155 µM); with Escherichia coli N10 it was over 128 µg/mL. The ED50 in the test with Streptococcus pyogenes was 0.69 mg/kg/2; in the test on Staphylococcus aureus it was 0.65 mg/kg/2; in the test with Streptococcus pneumoniae it was 1.14 mg/kg/2.

As to `CCCCc1ccc(CNC2(C)CC(OC3C(Oc4c5cc6cc4Oc4ccc(cc4Cl)C(O)C4NC(=O)C(NC(=O)C6NC(=O)C(CC(N)=O)NC(=O)C(NC(=O)C(CC(C)C)NC)C(O)c6ccc(c(Cl)c6)O5)c5ccc(O)c(c5)-c5c(O)cc(O)cc5C(C(=O)O)NC4=O)OC(CO)C(O)C3O)OC(C)C2O)cc1` (stereo not drawn) [Example 81, N^van --( -p-butylbenzyl)vancomycin], the MIC against Escherichia coli EC14 was over 128 µg/mL; in [1], 0.06 µg/mL (≈ 0.0376 µM); in test [2], over 128 µg/mL; in [3], 0.06 µg/mL (≈ 0.0376 µM); in [4], 0.125 µg/mL (≈ 0.0783 µM); in the test on Escherichia coli TEM, over 128 µg/mL. Moreover, the MIC in [5] was 32 µg/mL (≈ 20.1 µM); in [6], 32 µg/mL (≈ 20.1 µM); in test [7], 0.125 µg/mL (≈ 0.0783 µM); in test [8], 0.06 µg/mL (≈ 0.0376 µM); in [9], 0.06 µg/mL (≈ 0.0376 µM); in [10], over 128 µg/mL. For the same compound, the MIC in test [11] is 0.125 µg/mL (≈ 0.0783 µM); in [12], 0.25 µg/mL (≈ 0.157 µM); in test [13], 0.06 µg/mL (≈ 0.0376 µM); in [14] it was over 128 µg/mL; in test [15], 0.25 µg/mL (≈ 0.157 µM); against Escherichia coli N10, over 128 µg/mL. For the same compound, the ED50 with Streptococcus pyogenes is 1.16 mg/kg/2; in the test with Staphylococcus aureus, 0.74 mg/kg/2; in the test on Streptococcus pneumoniae, 1.26 mg/kg/2.

For the origin of these results see US4698327A, “Novel glycopeptide derivatives” (priority 1986, dated 1987).
